These are literature values, as cited in patent publication US6562363B1, “Bioadhesive compositions and methods for topical administration of active agents” (Noven Pharmaceuticals, Inc., priority 1997, dated 2003).

The conditions of series [1]: application to skin or mucous membranes; for Duration of Effect: duration of anesthetic effect; for Peak Effect: time to peak anesthetic effect.
For series [2] the following is noted: application to skin or mucous membranes.

Regarding `CCOC(=O)c1ccc(N)cc1` [Benzocaine], in series [1], the “Duration of Effect” value was 30 to 60 min and the “Peak Effect” value was 1 min. Also, in series [2], the “Maximum Adult Dose” value was 5000 mg.
`COC(=O)[C@H]1[C@@H](OC(=O)c2ccccc2)C[C@@H]2CC[C@H]1N2C` [Cocaine]: in series [2], the “Maximum Adult Dose” value is recorded as 50 mg.
For the compound `CCCCOc1cc(C(=O)NCCN(CC)CC)c2ccccc2n1` [Dibucaine], in series [1], the “Duration of Effect” value is 120 to 240 min and the “Peak Effect” value was under 15 min. Moreover, the “Maximum Adult Dose” value in series [2] was 25 mg.
In the case of `CCCCOc1ccc(C(=O)CCN2CCCCC2)cc1` [Dyclonine], in series [1], the “Duration of Effect” value was under 60 min and the “Peak Effect” value is under 10 min. In series [2], the “Maximum Adult Dose” value is reported as 100 mg.
`CCN(CC)CC(=O)Nc1c(C)cccc1C` [Lidocaine]: the “Maximum Adult Dose” value in series [2] was 750 mg.
For the compound `CCCCNc1ccc(C(=O)OCCN(C)C)cc1` [Tetracaine], in series [1], the “Duration of Effect” value was 30 to 60 min and the “Peak Effect” value was 3 to 8 min. The “Maximum Adult Dose” value in series [2] is reported as 50 mg.
